# According to PubChem BioAssay (NCI):
#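 Following 48 hours of exposure in 96-well plates, responses at five concentrations were used to interpolate endpoints linearly. The concentration for 50% growth inhibition is given as GI50. At the TGI there is no net growth.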
# What was measured:
# Test in all cases: growth of human tumour cells (NCI), 48 h
# SNB-75 CNS = system: SNB-75 CNS
# SK-OV-3 ovarian = system: SK-OV-3 ovarian
# M14 melanoma = system: M14 melanoma
# MOLT-4 leukemia = system: MOLT-4 leukemia
# A498 renal = system: A498 renal
# PC-3 prostate = system: PC-3 prostate
# IGROV1 ovarian = system: IGROV1 ovarian
# MDA-MB-231 breast = system: MDA-MB-231 breast
# CAKI-1 renal = system: CAKI-1 renal
# HOP-62 NSCLC = system: HOP-62 NSCLC
# U251 CNS = system: U251 CNS
# A549 NSCLC = system: A549 NSCLC
# MCF7 breast = system: MCF7 breast
# SF-539 CNS = system: SF-539 CNS
# NCI-H522 lung = system: NCI-H522 lung
# NCI/ADR-RES ovarian = system: NCI/ADR-RES ovarian
# UACC-257 melanoma = system: UACC-257 melanoma
# SK-MEL-28 melanoma = system: SK-MEL-28 melanoma
# MALME-3M melanoma = system: MALME-3M melanoma
# SR leukemia = system: SR leukemia
# MDA-MB-435 = system: MDA-MB-435
# SF-295 CNS = system: SF-295 CNS
# HT29 colon = system: HT29 colon
# SK-MEL-2 melanoma = system: SK-MEL-2 melanoma
# CCRF-CEM leukemia = system: CCRF-CEM leukemia
# HCC-2998 colon = system: HCC-2998 colon
# HS 578T breast = system: HS 578T breast
# ACHN renal = system: ACHN renal
# OVCAR-4 ovarian = system: OVCAR-4 ovarian
# RXF 393 renal = system: RXF 393 renal
# OVCAR-5 ovarian = system: OVCAR-5 ovarian
# UO-31 renal = system: UO-31 renal
# OVCAR-3 ovarian = system: OVCAR-3 ovarian
# NCI-H460 lung = system: NCI-H460 lung
# SK-MEL-5 melanoma = system: SK-MEL-5 melanoma
# K-562 leukemia = system: K-562 leukemia
# OVCAR-8 ovarian = system: OVCAR-8 ovarian
# SF-268 CNS = system: SF-268 CNS
# EKVX NSCLC = system: EKVX NSCLC
# HCT-15 colon = system: HCT-15 colon
# RPMI-8226 leukemia = system: RPMI-8226 leukemia
# 786-0 renal = system: 786-0 renal
# TK-10 renal = system: TK-10 renal
# SN12C renal = system: SN12C renal
# KM12 colon = system: KM12 colon
# COLO 205 colon = system: COLO 205 colon
# DU-145 prostate = system: DU-145 prostate
# LOX IMVI melanoma = system: LOX IMVI melanoma
# HL-60(TB) leukemia = system: HL-60(TB) leukemia
# SNB-19 CNS = system: SNB-19 CNS
# UACC-62 melanoma = system: UACC-62 melanoma
# SW-620 colon = system: SW-620 colon
# T-47D breast = system: T-47D breast
# BT-549 breast = system: BT-549 breast
# HCT-116 colon = system: HCT-116 colon
# NCI-H23 lung = system: NCI-H23 lung
smiles,measurement,setting,value
ClCC#CCSc1ncnc2c1ncn2CC#CCCl,GI50,SNB-75 CNS,1420 nM
same,TGI,SNB-75 CNS,3060 nM
same,GI50,SK-OV-3 ovarian,1860 nM
same,TGI,SK-OV-3 ovarian,3950 nM
same,GI50,M14 melanoma,1470 nM
same,TGI,M14 melanoma,3130 nM
same,GI50,MOLT-4 leukemia,2680 nM
same,TGI,MOLT-4 leukemia,14100 nM
same,GI50,A498 renal,1750 nM
same,TGI,A498 renal,4750 nM
same,GI50,PC-3 prostate,1410 nM
same,TGI,PC-3 prostate,3240 nM
same,GI50,IGROV1 ovarian,1030 nM
same,TGI,IGROV1 ovarian,3340 nM
same,GI50,MDA-MB-231 breast,1500 nM
same,TGI,MDA-MB-231 breast,3550 nM
same,GI50,CAKI-1 renal,1150 nM
same,TGI,CAKI-1 renal,3740 nM
same,GI50,HOP-62 NSCLC,1280 nM
same,TGI,HOP-62 NSCLC,2670 nM
same,GI50,U251 CNS,1320 nM
same,TGI,U251 CNS,3040 nM
same,GI50,A549 NSCLC,1760 nM
same,TGI,A549 NSCLC,4350 nM
same,GI50,MCF7 breast,1180 nM
same,TGI,MCF7 breast,3620 nM
same,GI50,SF-539 CNS,2100 nM
same,TGI,SF-539 CNS,4210 nM
same,GI50,NCI-H522 lung,1140 nM
same,TGI,NCI-H522 lung,2730 nM
same,GI50,NCI/ADR-RES ovarian,1770 nM
same,TGI,NCI/ADR-RES ovarian,4920 nM
same,GI50,UACC-257 melanoma,1360 nM
same,TGI,UACC-257 melanoma,3490 nM
same,GI50,SK-MEL-28 melanoma,1610 nM
same,TGI,SK-MEL-28 melanoma,3140 nM
same,GI50,MALME-3M melanoma,1880 nM
same,TGI,MALME-3M melanoma,6420 nM
same,GI50,SR leukemia,432 nM
same,TGI,SR leukemia,13800 nM
same,GI50,MDA-MB-435,2270 nM
same,TGI,MDA-MB-435,9040 nM
same,GI50,SF-295 CNS,2050 nM
same,TGI,SF-295 CNS,4590 nM
same,GI50,HT29 colon,1650 nM
same,TGI,HT29 colon,3850 nM
same,GI50,SK-MEL-2 melanoma,1750 nM
same,TGI,SK-MEL-2 melanoma,4790 nM
same,GI50,CCRF-CEM leukemia,1800 nM
same,TGI,CCRF-CEM leukemia,15200 nM
same,GI50,HCC-2998 colon,1670 nM
same,TGI,HCC-2998 colon,3110 nM
same,GI50,HS 578T breast,2410 nM
same,TGI,HS 578T breast,9800 nM
same,GI50,ACHN renal,1980 nM
same,TGI,ACHN renal,5500 nM
same,GI50,OVCAR-4 ovarian,2120 nM
same,TGI,OVCAR-4 ovarian,8290 nM
same,GI50,RXF 393 renal,1010 nM
same,TGI,RXF 393 renal,2290 nM
same,GI50,OVCAR-5 ovarian,1730 nM
same,TGI,OVCAR-5 ovarian,3340 nM
same,GI50,UO-31 renal,1330 nM
same,TGI,UO-31 renal,3380 nM
same,GI50,OVCAR-3 ovarian,1510 nM
same,TGI,OVCAR-3 ovarian,2950 nM
same,GI50,NCI-H460 lung,2150 nM
same,TGI,NCI-H460 lung,6770 nM
same,GI50,SK-MEL-5 melanoma,1290 nM
same,TGI,SK-MEL-5 melanoma,2660 nM
same,GI50,K-562 leukemia,3150 nM
same,TGI,K-562 leukemia,40400 nM
same,GI50,OVCAR-8 ovarian,1780 nM
same,TGI,OVCAR-8 ovarian,5240 nM
same,GI50,SF-268 CNS,1330 nM
same,TGI,SF-268 CNS,3090 nM
same,GI50,EKVX NSCLC,1900 nM
same,TGI,EKVX NSCLC,4200 nM
same,GI50,HCT-15 colon,1680 nM
same,TGI,HCT-15 colon,5970 nM
same,GI50,RPMI-8226 leukemia,2030 nM
same,TGI,RPMI-8226 leukemia,6380 nM
same,GI50,786-0 renal,1660 nM
same,TGI,786-0 renal,3410 nM
same,GI50,TK-10 renal,2940 nM
same,TGI,TK-10 renal,13900 nM
same,GI50,SN12C renal,1550 nM
same,TGI,SN12C renal,3650 nM
same,GI50,KM12 colon,1390 nM
same,TGI,KM12 colon,2800 nM
same,GI50,COLO 205 colon,1560 nM
same,TGI,COLO 205 colon,3030 nM
same,GI50,DU-145 prostate,1790 nM
same,TGI,DU-145 prostate,4490 nM
same,GI50,LOX IMVI melanoma,503 nM
same,TGI,LOX IMVI melanoma,2000 nM
same,GI50,HL-60(TB) leukemia,1990 nM
same,TGI,HL-60(TB) leukemia,5730 nM
same,GI50,SNB-19 CNS,1640 nM
same,TGI,SNB-19 CNS,3610 nM
same,GI50,UACC-62 melanoma,1170 nM
same,TGI,UACC-62 melanoma,2660 nM
same,GI50,SW-620 colon,2170 nM
same,TGI,SW-620 colon,4790 nM
same,GI50,T-47D breast,1330 nM
same,TGI,T-47D breast,2680 nM
same,GI50,BT-549 breast,1610 nM
same,TGI,BT-549 breast,3020 nM
same,GI50,HCT-116 colon,1420 nM
same,TGI,HCT-116 colon,2930 nM
same,GI50,NCI-H23 lung,1490 nM
same,TGI,NCI-H23 lung,3460 nM
